Consider 1 compound from patent publication US9925222B2, “Gut barrier dysfunction treatment and prevention” (ALBERT EINSTEIN COLLEGE OF MEDICINE OF YESHIVA UNIVERSITY, priority 2012, dated 2018).

For assay [1], the target named is T1, mPXR ligand binding domain (Mus musculus, UniProt O54915).
T1 construct: made in house
T1 sequence (O54915 143-430 limits assumed): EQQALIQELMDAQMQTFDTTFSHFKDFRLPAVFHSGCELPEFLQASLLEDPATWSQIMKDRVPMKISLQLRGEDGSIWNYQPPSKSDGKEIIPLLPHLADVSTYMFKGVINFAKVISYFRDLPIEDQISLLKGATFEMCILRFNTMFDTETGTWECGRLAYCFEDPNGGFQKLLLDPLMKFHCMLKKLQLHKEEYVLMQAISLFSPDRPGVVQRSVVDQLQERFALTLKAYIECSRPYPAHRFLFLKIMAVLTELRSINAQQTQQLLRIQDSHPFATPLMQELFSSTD
Nature of the assay: LanthaScreen TR-FRET PXR competitive binding assay, mPXR LBD. The note with it: read-out: EC50 for ligand displacement in mPXR. The procedure:
A LanthaScreen TR-FRET PXR Competitive Binding Assay was conducted according to the manufacturer's protocol (Invitrogen) as previously published (14). Briefly, serial dilutions of indole 3-propionic acid (diluted in TR-FRET PXR Assay Buffer, Invitrogen) were dispensed into triplicate wells of a black, non-treated 384 well plate (Corning Life Sciences). Subsequently, 5 μl of Fluormone PXR Green was added into each well. Finally, 5 μl of a master mix containing hPXR ligand binding domain (LBD), terbium labeled anti-glutathione S transferase (final concentration 10 nM) and dithiothreitol (final concentration 0.05 mM) was added into each well. For mPXR ligand binding domain, GST tagged mPXR LBD was purified using Glutathione Sepharose 4 Fast Flow beads (GE Health Care) in Poly-Prep Chromatography columns (Bio-Rad). hPXR LBD of the assay kit was replaced with the similar concentrations of mPXR LBD. The content was mixed briefly (10 s) and incubated in dark at room temperature for 1 h. TR-FRET was measured using SpectraMaxR M5 microplate reader (Molecular Devices) with the excitation wavelength of 340 nm and emission wavelengths of 520 and 495 nm. TR-FRET ratio was calculated by dividing the emission signal at 520 nm by emission signal at 495 nm. Data are expressed as percentage TR-FRET ratio. Error bars represent s.e.m of duplicate wells from two separate experiments.
(In general: TR-FRET usually uses a lanthanide donor and a delayed reading to cut background.)

For assay [2], the system named is Tnf-α mRNA expression. Put plainly: KDO2-lipid A gut mucosal endotoxemia model with oral IPA, Tnf-α qPCR in jejunum apical enterocytes. It is filed as in vivo. Particulars: KDO2 200 μg/mice, oral IPA 20 mg/kg. The procedure: 2.0 μg of total RNA extracted from pooled apical enterocytes with TRIzolR (Invitrogen), were reverse transcribed with random hexamer primers and SuperScript™ III-RT enzyme (Invitrogen). Quantitative PCR (qPCR) reactions using TaqMan universal PCR master mix and TaqMan probes containing FAM as the 5′ reporter fluorochrome and tetramethylrhodamine (MGB) as the 3′ quencher fluorochrome, were performed in triplicate for each sample and analyzed on the ABI Prism 7900HT system. […]
For indomethacin induced mouse jejunitis model, a protocol published by Ettarh and Carr was modified by using a single intraperitoneal dose of indomethacin to reduce the toxicity in Pxr^−/− mice (17). […] Weights of individual jejunum sections were measured for quantitation of enteropooling (intestinal weight/length in mg/cm). […]
On the technique in general: In qPCR the cycle at which signal appears reflects the starting amount.

Assay [3] relates to PXR target gene transcription (Mdr-1). Put plainly: PXR target gene (Mdr-1) qPCR in jejunum apical enterocytes after oral IPA. The assay is classed as in vivo, mice. Particulars: oral IPA 20 mg/kg; Mdr-1, jejunum apical enterocytes.
Procedure: 2.0 μg of total RNA extracted from pooled apical enterocytes with TRIzolR (Invitrogen), were reverse transcribed with random hexamer primers and SuperScript™ III-RT enzyme (Invitrogen). Quantitative PCR (qPCR) reactions using TaqMan universal PCR master mix and TaqMan probes containing FAM as the 5′ reporter fluorochrome and tetramethylrhodamine (MGB) as the 3′ quencher fluorochrome, were performed in triplicate for each sample and analyzed on the ABI Prism 7900HT system. […] Controls include RT-minus RNA samples. PCR reaction conditions for all assays were set at 50° C. for 2 minutes, 95° C. for 10 minutes, followed by 40 cycles of amplification (95° C. for 15 seconds then 60° C. for 1 minute). Experiments were performed at least two independent times each in triplicates.

On to `O=C(O)CCc1c[nH]c2ccccc12` [IPA, indole-3-propionic acid], for which the EC50 in assay [1] is 1100 nM. Moreover, the entries for the “Decrease of epithelial Tnf mRNA expression” value in assay [2] (Pxr+/+ mice) and in assay [2] (Pxr−/− mice) were 3.73 fold and 1.72 fold, respectively. For the same compound, the “PXR target gene transcription in vivo” value in assay [3] was “induces PXR target gene transcription in vivo”.

Usually EC50 stands for the midpoint of the concentration-response curve.
